The source made the active and inactive calls.

The nature of assay [1]: antimalarial activity against Dd2 parasites – SYBR Green fluorescence, erythrocytes, dry powder, set 2, dose response (AID 1159574). It is filed as functional, cell-based.
Assay [2] can be described thus: Dd2 malaria parasite growth inhibition potency – SYBR Green, dry powder samples, dose response (AID 1159566).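 Also: potency for growth inhibition with lower SYBR green DNA signal.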 The format is functional, cell-based.
Assay [3] can be described thus: Plasmodium falciparum Dd2 Sybr green parasite growth Measured in Cell-Based and Microorganism Combination System Using Plate Reader - 2153-01_Inhibitor_Dose_DryPowder_Activity_Set3. It is filed as functional.
Assay [4] is described as follows: toxicity to human HepG2 hepatoma cells – cell-based, plate reader, dry powder samples, cytotoxicity control, dose response (AID 1159569).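 Also: inhibitor potency with signal falling toward the positive control level.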 It is filed as functional.
The nature of assay [5]: P. falciparum Dd2 growth inhibitors, dose response, SYBR Green, cherry-picked samples (AID 1159567). The format is functional, cell-based.
Assay [6] can be described thus: growth inhibition of PfATP4-mutant resistant parasites – NITD609-resistant line, SYBR Green, dry powder, dose response (AID 1159571).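 Also: parasites synchronized at ring stage by sorbitol before testing.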 The format is functional, cell-based.
Assay [7] can be described thus: growth inhibition of yeast DHODH-expressing 3D7 parasites – SYBR Green, dry powder samples, dose response (AID 1159570).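 Also: parasite growth measured after 72 hours of compound exposure.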 It is filed as functional, cell-based.
Assay [8] concerns the target G-protein coupled receptor 183 (Homo sapiens, UniProt P32249). Briefly: SAR confirmation of small molecule antagonists of the EBI2 receptor via a luminescent beta-arrestin assa. It is filed as functional.
Assay [9] addresses T1, Low molecular weight phosphotyrosine protein phosphatase (Homo sapiens, UniProt P24666).
T1 sequence (P24666 whole entry): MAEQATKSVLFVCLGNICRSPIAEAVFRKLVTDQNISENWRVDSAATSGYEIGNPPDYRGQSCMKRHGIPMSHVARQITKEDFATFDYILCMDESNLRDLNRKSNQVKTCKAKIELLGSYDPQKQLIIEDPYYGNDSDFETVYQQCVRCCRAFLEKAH
Briefly: inhibition of human LMPTP enzyme activity – biochemical, absorbance, pNPP substrate, LMPTP-A isoform, set 2, orthogonal assay, dose response (AID 743308). It is filed as functional.

Assay [10] has as its target T1, Low molecular weight phosphotyrosine protein phosphatase. The assay is described as follows: inhibition of LMPTP-A enzymatic activity – biochemical, OMFP substrate, fluorescence intensity, set 2, dose response (AID 743307). It is filed as functional.
A short description of assay [11]: Dd2 parasite growth inhibition in erythrocytes – SYBR Green, dry powder samples, set 9, dose response (AID 1159568). The format is functional, cell-based.
The subject of assay [12] is H9c2. Briefly: cells. It is filed as functional, cell-based. The following applies: Rattus norvegicus, H9c2, Myocardium.
Assay [13] can be described thus: cells. The format is functional, cell-based. Particulars: INS-1E.
Assay [14] is described as follows: IC50 of insulin release inhibition, rat insulinoma INS-1E line, 5 mM glucose, cell-based (AID 1117331). The format is functional.
The nature of assay [15]: glucagon-like peptide-1 release potency in STC-1, concentration-response, half-maximal inhibitory concentration in the STC-1 line (AID 1117345). The format is functional, cell-based.
The nature of assay [16]: Potency on glucagon-like peptide 1 release, dose-response in NCI-H716 cell line, half maximal inhibitory concentration (AID 1117344). It is filed as functional, cell-based.
Assay [17] concerns the target T2, Bcl-2-related protein A1 (Mus musculus, UniProt Q07440).
T2 sequence (Q07440 whole entry): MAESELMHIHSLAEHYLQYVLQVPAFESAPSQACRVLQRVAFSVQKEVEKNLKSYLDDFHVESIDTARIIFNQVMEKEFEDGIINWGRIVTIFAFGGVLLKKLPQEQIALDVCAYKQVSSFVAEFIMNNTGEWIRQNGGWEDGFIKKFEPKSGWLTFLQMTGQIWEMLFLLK
The assay is described as follows: small-molecule antagonists of Bfl-1/BH3 interaction – biochemical, TR-FRET, mouse Bfl-1, confirmation (AID 621).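 Also: TR-FRET binding of GST-Bfl-1 to FITC-labelled Bid peptide via terbium antibody.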

A short description of assay [18]: reduction of Shn3 3'UTR-driven luciferase in osteoblasts – cell-based, Clone20 osteoblasts, firefly luciferase, cherry-picked, dose response (AID 624132).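 Also: firefly luciferase luminescence from reporter carrying the Shn3 3'UTR in osteoblasts.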 It is filed as functional.
Assay [19] can be described thus: non-specific 3'UTR reporter inhibition in Clone20-Shn3RL – cell-based, Renilla luciferase, cherry-picked, counter-screen for Shn3 inhibitor project, dose response (AID 624133). The format is functional.
A short description of assay [20]: rise of 4N DNA cells, HeLa – IC50, dose response (AID 1117351). The format is functional, cell-based.
A short description of assay [21]: rise of 2N DNA cells, HeLa – IC50, dose response (AID 1117349). The format is functional, cell-based.
For assay [22], the target named is T2, Bcl-2-related protein A1. Briefly: displacement of Bid BH3 peptide from Bfl-1 – biochemical, fluorescence polarization, FITC-Bid, mouse, primary screen (AID 432).
Assay [23] in a line: cytotoxicity toward HT-29 cells – cell-based, CellTiter-Glo luminescence, IC50, dose response (AID 1117330). It is filed as functional.
The nature of assay [24]: HCT116 cell viability decrease, GSK3B pretreatment – CellTiter-Glo, IC50, dose response (AID 1117339). It is filed as functional. The following applies: HCT-116.
The nature of assay [25]: Reduced DLD-1 viability, concentration-response, CellTiter-Glo luminescence (AID 1117352). It is filed as functional.
Assay [26] is described as follows: cytotoxicity toward Colo320 cells – cell-based, CellTiter-Glo luminescence, IC50, dose response (AID 1117334). The format is functional. Particulars: COLO 320.
Assay [27] in a line: CellTiter-Glo luminescence survival assay, SW480 colon tumor line, concentration-response curve, half-maximal inhibitory concentration (AID 1117338). The format is functional.
Assay [28] in a line: RKO cell viability reduction, dose response, CellTiter-Glo luminescence (AID 1117322). It is filed as functional.
A short description of assay [29]: SNU-C1 cell viability reduction, dose response, CellTiter-Glo luminescence (AID 1117323). The format is functional, cell-based.
A short description of assay [30]: cytotoxicity toward HCT116 cells – cell-based, CellTiter-Glo luminescence, IC50, dose response (AID 1117332). The format is functional. Particulars: HCT-116.

Sequence of G-protein coupled receptor 183 (P32249 whole entry): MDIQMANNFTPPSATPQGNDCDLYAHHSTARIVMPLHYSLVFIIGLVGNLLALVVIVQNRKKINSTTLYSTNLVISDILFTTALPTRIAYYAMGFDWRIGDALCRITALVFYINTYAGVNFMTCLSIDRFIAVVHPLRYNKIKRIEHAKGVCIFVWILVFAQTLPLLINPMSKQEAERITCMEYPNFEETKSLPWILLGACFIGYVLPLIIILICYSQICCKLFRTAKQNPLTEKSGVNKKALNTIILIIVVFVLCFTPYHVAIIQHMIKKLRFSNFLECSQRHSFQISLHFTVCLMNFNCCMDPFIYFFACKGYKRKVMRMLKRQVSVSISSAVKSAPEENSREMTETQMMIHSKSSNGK

Regarding `COc1ccc(NC(=O)N2CCCCN3[C@@H](CO)[C@H](c4ccc(C#Cc5ccccc5)cc4)[C@@H]3C2)cc1`, the AC50 in [1] is 0.036 µM (active).

On to `CCCC(=O)Nc1ccc2c(c1)OC[C@@H](C)N(Cc1cccc(F)c1)C[C@@H](C)[C@H](OC)CN(C)C2=O`, for which the AC50 in assay [2] is 0.884 µM (active); in [3], 1.82 µM (active); in assay [4], 58.9 µM (active); in [5], 1.09 µM (active); in assay [6] it was 2.24 µM (active); in assay [7], 5.76 µM (active).

As to `CCCCN1CCN(C(=O)/C=C/c2ccc(Br)cc2)CC1`, in assay [8], the 50% inhibitory concentration (IC50) was 0.0021 µM (active).

With `COc1cccc(-c2cc(NCCCN3CCCCC3)c3ccccc3n2)c1`, the IC50 was 4.89 µM (active) in [9] and 2.21 µM (active) in assay [10].

For `COc1cccc(-c2cccc(-c3nc(C(=O)NCc4ccc(Oc5ccccc5)cc4)cc4c3[C@@H](CCO)N([S+]([O-])C(C)(C)C)C4)c2)c1` (stereo partly specified), the AC50 in assay [11] was 0.447 µM (active); in assay [2], 0.237 µM (active); in assay [5], 0.671 µM (active); in [6] it was 0.449 µM (active); in assay [7], 0.826 µM (active).

Consider `O=c1[nH]c2ccccc2n1CCCN1CCC(n2c(=O)[nH]c3cc(Cl)ccc32)CC1` [DOMPERIDONE], for which the values for the IC50 in [12], in assay [13] and in assay [14] were > 79 µM (inactive), > 33.3 µM (inactive) and 12.4 µM (inactive), respectively.

With `CC[C@H](C)C(=O)O[C@H]1C[C@@H](C)C=C2C=C[C@H](C)[C@H](CC[C@@H]3C[C@@H](O)CC(=O)O3)[C@H]21` [LOVASTATIN], the IC50 was > 40 µM (inactive) in assay [15]; 32.9 µM (inactive) in assay [16]; > 100 µM (not active) in assay [17]; > 10 µM (inactive) in assay [20]; > 10 µM (inactive) in [21]; > 100 µM (not active) in [22]. In addition, the AC50 in assay [18] is 1.62 µM (active); in [19], 4.74 µM (active).

In the case of `O=C(O)CN(CCN(CC(=O)O)CC(=O)O)CCN(CC(=O)O)CC(=O)O` [PENTETIC ACID], the IC50 was > 20 µM (inactive) in [23]; 0.896 µM (active) in assay [24]; > 20 µM (inactive) in [25]; > 20 µM (inactive) in [26]; 3.14 µM (active) in assay [27]; 2.96 µM (active) in assay [28]. The IC50 was > 10 µM (inactive) in [20], > 10 µM (inactive) in [21], > 20 µM (inactive) in assay [29] and > 6.67 µM (inactive) in [30].

(Values after ChEMBL document CHEMBL1201862, “PubChem BioAssay data set” (2004).)
